Here are results for six compounds from US20250018014A1, “METHOD FOR TREATING AND/OR PREVENTING REGNASE-1-RELATED DISEASE” (OSAKA UNIVERSITY, priority 2018, published 2025).

In test [1] the target is T1, FL_Reg1 (full-length human Regnase-1) phosphorylation by TBK1 (Homo sapiens, UniProt Q5D1E8).
T1 construct: made in house; host or cells: Expi293 cells
T1 sequence (Q5D1E8 1-599): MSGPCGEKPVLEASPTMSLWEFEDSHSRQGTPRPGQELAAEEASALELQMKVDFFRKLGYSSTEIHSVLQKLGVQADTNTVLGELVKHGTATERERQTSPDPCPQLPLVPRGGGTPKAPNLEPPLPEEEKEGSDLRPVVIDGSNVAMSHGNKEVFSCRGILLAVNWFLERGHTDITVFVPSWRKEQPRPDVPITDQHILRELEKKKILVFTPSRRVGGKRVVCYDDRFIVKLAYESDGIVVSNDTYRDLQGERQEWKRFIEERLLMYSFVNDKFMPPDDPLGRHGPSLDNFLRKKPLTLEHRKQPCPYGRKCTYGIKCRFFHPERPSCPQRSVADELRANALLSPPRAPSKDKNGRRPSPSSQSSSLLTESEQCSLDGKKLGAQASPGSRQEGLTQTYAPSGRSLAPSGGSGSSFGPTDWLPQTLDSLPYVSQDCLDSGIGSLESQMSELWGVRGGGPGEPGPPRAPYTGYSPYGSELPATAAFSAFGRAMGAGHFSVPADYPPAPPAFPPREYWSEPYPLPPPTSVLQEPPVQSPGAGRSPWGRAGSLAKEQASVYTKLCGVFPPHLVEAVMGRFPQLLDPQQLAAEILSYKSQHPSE
Description: Regnase-1 phosphorylation inhibition by compounds (AlphaScreen), TBK1, full-length Regnase-1. Format: biochemical. The method, boiled down: (§1)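 FLAG/BirA-tagged human Regnase-1 constructs (full-length, 1–546 or 301–599), expressed in Expi293 cells, were used at 2 nM with compound and phosphorylated by IKKβ or TBK1 with 10 μM ATP, DTT, vanadate and MnCl2 for 2 h at room temperature. Phospho-Regnase-1 was read by AlphaScreen; IC50 came from % inhibition curves normalised to DMSO and Regnase-1-alone signals.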

Test [2] has as its target T2, FL_Reg1 (full-length human Regnase-1) phosphorylation by IKKβ (Homo sapiens, UniProt Q5D1E8).
T2 construct: made in house; host or cells: Expi293 cells
T2 sequence (Q5D1E8 1-599): T1 sequence (Q5D1E8 1-599)
Description: Regnase-1 phosphorylation inhibition by compounds (AlphaScreen), IKKβ, full-length Regnase-1. Format: biochemical. The method, boiled down: as §1

The target of test [3] is T3, binding between IKKβ and full-length Regnase-1 (FL_Reg1) (Homo sapiens, UniProt Q5D1E8).
T3 construct: made in house; host or cells: Expi293 cells
T3 sequence (Q5D1E8 1-599): T1 sequence (Q5D1E8 1-599)
Description: Inhibition of kinase-Regnase-1 binding by the compounds (AlphaScreen), IKKβ. An outline of the steps: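 FLAG-tagged, biotin-acceptor-tagged full-length human Regnase-1 was expressed in Expi293 cells. It was mixed at 2.5 nM with compound, then 2.5 nM IKKβ or TBK1 was added for 2 h at room temperature. Binding was read with anti-FLAG acceptor and glutathione donor beads; IC50 came from dose-response inhibition relative to Regnase-1 alone and DMSO.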
(In general: Bead proximity is the source of the signal in Alpha formats.)

Setting [4] is: Table 11, 2 nM Regnase-1, AlphaScreen, read-out: 50% inhibition concentration, Regnase-1 phosphorylation, FL_Reg1, TBK1.
The mark [5] stands for this setting: Table 11, 2 nM Regnase-1, AlphaScreen, read-out: 50% inhibition concentration, Regnase-1 phosphorylation, FL_Reg1, IKKβ.
The mark [6] stands for this setting: Table 12, 2.5 nM Regnase-1, 2.5 nM IKKβ, AlphaScreen, read-out: 50% inhibition concentration, binding between Regnase-1 and IKKβ, FL_Reg1.
Where [7] appears, read: Table 14, binding between IKKβ and Regnase-1, read-out: Binding inhibition FL_Reg1, 50% inhibition concentration (IKKβ).
Where [8] appears, read: Table 13, phosphorylation by TBK1, read-out: Phosphorylation inhibition FL_Reg1, 50% inhibition concentration (TBK1).
[9] abbreviates: Table 14, phosphorylation by IKKβ, read-out: Phosphorylation inhibition FL_Reg1, 50% inhibition concentration (IKKβ).

Read-outs that look alike come from different tables or passages of the source. Residues, ends and D or L forms follow the SMILES beside them.

For `CC(C)[C@@H]1NC(=O)[C@H](CCCCN)NC(=O)[C@H](Cc2ccc(O)cc2)NC(=O)[C@H](Cc2c[nH]c3ccccc23)NC(=O)[C@H](CO)NC(=O)[C@H]([C@@H](C)O)NC(=O)[C@H](C)N(C)C(=O)C[C@@H](C(=O)N2CCCC2)NC(=O)[C@H](CCC(N)=O)NC(=O)CNC(=O)[C@H](Cc2c[nH]c3ccccc23)NC(=O)[C@H](CC(N)=O)NC1=O` [PP1] (HELM PEPTIDE1{[meA].T.S.W.Y.K.V.N.W.G.Q.D.[C1CCN([*:1])C1]}$PEPTIDE1,PEPTIDE1,1:R1-12:R3$$$V2.0), the IC50 in test [1] (setting [4]) was 54.5 µM; in test [2] (setting [5]), 28.1 µM; in test [3] (setting [6]), greater than 62.1 µM; in test [3] (setting [7]), greater than 62.1 µM.

Turning to `CC[C@H](C)[C@@H]1NC(=O)[C@H](CCCCN)NC(=O)[C@H](Cc2ccc(O)cc2)NC(=O)[C@H](Cc2c[nH]c3ccccc23)NC(=O)[C@H](CO)NC(=O)[C@H](CC(N)=O)NC(=O)[C@H](C)N(C)C(=O)C[C@@H](C(=O)N2CCCC2)NC(=O)[C@H](CC(C)C)NC(=O)CNC(=O)[C@H](Cc2c[nH]c3ccccc23)NC1=O` [PP21] (HELM PEPTIDE1{[meA].N.S.W.Y.K.I.W.G.L.D.[C1CCN([*:1])C1]}$PEPTIDE1,PEPTIDE1,1:R1-11:R3$$$V2.0), the IC50 in test [1] (setting [8]) came out at 13.5 µM; in test [2] (setting [9]), 19.6 µM; in test [3] (setting [7]) it was 20.7 µM.

For `CC[C@H](C)[C@@H]1NC(=O)[C@H](Cc2c[nH]c3ccccc23)NC(=O)[C@H](CCCNC(=N)N)NC(=O)[C@H](Cc2ccccc2)NC(=O)[C@H](CCC(N)=O)NC(=O)[C@H](C)NC(=O)[C@H](Cc2ccccc2)NC(=O)[C@H](CCCCN)NC(=O)[C@H](C)N(C)C(=O)C[C@@H](C(=O)N2CCCC2)NC(=O)[C@@H]2CCCN2C(=O)[C@H](Cc2ccc(O)cc2)NC1=O` [PP11] (HELM PEPTIDE1{[meA].K.F.A.Q.F.R.W.I.Y.P.D.[C1CCN([*:1])C1]}$PEPTIDE1,PEPTIDE1,1:R1-12:R3$$$V2.0), the IC50 in test [1] (setting [8]) is 29.1 µM; in test [2] (setting [9]), 22.3 µM; in test [3] (setting [7]), greater than 62.1 µM.

Take `CC[C@H](C)[C@@H]1NC(=O)[C@H](CCCCN)NC(=O)[C@H](Cc2ccc(O)cc2)NC(=O)[C@H](Cc2c[nH]c3ccccc23)NC(=O)[C@H](CO)NC(=O)[C@H](CO)NC(=O)[C@H]([C@@H](C)O)NC(=O)[C@@H]2CCCN2C(=O)[C@@H](C)N(C)C(=O)C[C@@H](C(=O)N2CCCC2)NC(=O)[C@H](Cc2c[nH]c3ccccc23)NC1=O` [PP23] (HELM PEPTIDE1{[C[C@H](C(=O)[*:2])N(C)[*:1]].P.T.S.S.W.Y.K.I.W.D.[C1CCN([*:1])C1]}$PEPTIDE1,PEPTIDE1,1:R1-11:R3$$$V2.0): the IC50 in test [1] (setting [8]) stood at 18.8 µM; in test [2] (setting [9]), 25.6 µM; in test [3] (setting [7]), 41.3 µM.

On to `CC[C@H](C)[C@@H]1NC(=O)[C@H](CCCCN)NC(=O)[C@H](Cc2ccccc2)NC(=O)[C@H](Cc2c[nH]c3ccccc23)NC(=O)[C@H](CO)NC(=O)[C@H](CO)NC(=O)[C@H](CC(N)=O)NC(=O)[C@@H]2CCCN2C(=O)[C@@H](C)N(C)C(=O)C[C@@H](C(=O)N2CCCC2)NC(=O)[C@H](Cc2c[nH]c3ccccc23)NC1=O` [PP6] (HELM PEPTIDE1{[C[C@H](C(=O)[*:2])N(C)[*:1]].P.N.S.S.W.F.K.I.W.D.[C1CCN([*:1])C1]}$PEPTIDE1,PEPTIDE1,1:R1-11:R3$$$V2.0), for which the values for the IC50 in test [1] (setting [4]), in test [2] (setting [5]) and in test [3] (setting [6]) were 13.1 µM, 17 µM and 42.1 µM, respectively.

With `CC[C@H](C)[C@@H]1NC(=O)[C@H](CCCNC(=N)N)NC(=O)[C@H](Cc2ccc(O)cc2)NC(=O)[C@H](Cc2c[nH]c3ccccc23)NC(=O)[C@H](CO)NC(=O)[C@H](CC(N)=O)NC(=O)[C@H](C)N(C)C(=O)C[C@@H](C(=O)N2CCCC2)NC(=O)[C@H](CC(C)C)NC(=O)CNC(=O)[C@H](Cc2c[nH]c3ccccc23)NC1=O` [PP22] (HELM PEPTIDE1{[meA].N.S.W.Y.R.I.W.G.L.D.[C1CCN([*:1])C1]}$PEPTIDE1,PEPTIDE1,1:R1-11:R3$$$V2.0), the IC50 is 24.3 µM in test [1] (setting [8]), 15 µM in test [2] (setting [9]) and 26.8 µM in test [3] (setting [7]).
